Assay results: publication PMC12299847, “Macroalgae-Inspired Brominated Chalcones as Cosmetic Ingredients with the Potential to Target Skin Inflammaging” (Marine Drugs, 2025)

What was measured:
[1] = system: iNOS protein levels in RAW264.7 macrophages; test: Western blot analysis of iNOS expression in LPS-stimulated macrophages; assay type: cell-based, murine; settings: for iNOS expression level: normalized against LPS condition
Procedure: To investigate the underlying mechanism of action of the most promising brominated chalcones (1 and 2), their effects on iNOS protein levels were assessed in LPS-stimulated macrophages at different time points (4, 6, and 24 h). The non-treated (NT) condition, consisting of macrophages stimulated with LPS but receiving no chalcone treatment, was used as the reference for maximal iNOS induction under inflammatory conditions and served as a positive control. The selected concentrations (7.5 μM and 15 μM) were selected based on chalcones 1 and 2 cytocompatibility (Figure 3) and efficacy in reducing NO production (Figure 4). Since NO production is a direct consequence of iNOS enzymatic activity, where the enzyme catalyzes the conversion of L-arginine to NO following inflammatory stimulation such as LPS, this provides a functional readout of iNOS expression and activity.
Here, we focused on validating iNOS expression at the protein level by western blot (Figure 6). While gene-level expression was not assessed, it is well established that LPS stimulation induces both iNOS transcription and translation in RAW 264.7 macrophages. Moreover, changes observed at the protein level are often closely associated with upstream transcriptional or translational modulation. Therefore, quantifying iNOS protein levels provides a biologically relevant measure of the chalcones’ inhibitory effects on this key inflammatory mediator.
The expression of the iNOS enzyme was analyzed by western blot. RAW264.7 macrophages were seeded at a density of 1 × 10^6 cells/well in a 6-well plate and incubated for 24 h at 37 °C in a humidified atmosphere containing 5% CO2. After incubation, cells were treated with 7.5 µM or 15 µM of the most promising chalcones (1 and 2) for 30 min, followed by the addition of LPS to have a final concentration of 100 ng/mL. Cells were then incubated for 4, 6, or 24 h. At each time point, cells were washed with PBS and lysed in RIPA buffer. The lysates were collected in Eppendorf tubes and kept on ice, with intermittent vortexing to ensure thorough lysis. Samples were centrifuged at 18,000× g for 16 min at 4 °C, and the supernatant was collected. Total protein concentration was determined using the Pierce™ BCA Protein Assay Kit (Thermo Scientific, 23225, Waltham, MA, USA), following the manufacturer’s instructions. Equal amounts of protein (25 µg) were loaded onto Bolt™ 8% Bis-Tris Mini Protein Gels (Invitrogen™, NW00087BOX, Waltham, MA, USA) and separated via electrophoresis. Proteins were then transferred onto nitrocellulose membranes (Invitrogen™, IB24002) using the iBlot® 2 dry transfer system (Invitrogen™, Waltham, MA, USA). After transfer, membranes were sectioned to separate the iNOS bands from those of the housekeeping protein GAPDH. Membranes were blocked for 1 h at room temperature in TBS-T containing 5% BSA and subsequently incubated overnight at 4 °C with primary antibodies against iNOS (Cell Signaling Technology, 16713120S, Danvers, MA, USA) or GAPDH (Abcam, ab181602, Cambridge, UK), diluted in TBS-T with 1% BSA. On the following day, membranes were washed three times with TBS-T and incubated for 1 h at room temperature with an HRP-conjugated secondary antibody (Cell Signaling Technology, 7074S) diluted in TBS-T with 1% BSA. After three additional washes, signal detection was performed using Clarity™ Western ECL Substrate (Bio-Rad, 1705061, Hercules, CA, USA), and chemiluminescent signals were acquired using the Odyssey FC imaging system (LI-COR, Lincoln, NE, USA). Densitometric analysis of iNOS bands was performed using Image Studio™ Software (version 5.2, LI-COR, Lincoln, NE, USA), with values normalized to the corresponding GAPDH bands.
Figure 6 iNOS expression level after treatment of 4, 6, and 24 h with chalcones 1 and 2 in macrophage cell line. Results are expressed as volume arbitrary unit (A). […]

[2] = NO scavenging potential (SNAP assay); assay type: biochemical; settings: SNAP 300 μM, 3 h; compounds 100 μM (methods) or 7.5 μM (Figure 5)
Procedure: The SNAP (S-nitroso-N-acetylpenicillamine) assay is a well-established method for assessing the NO scavenging capacity of compounds, offering valuable insights into their potential direct antioxidant and anti-inflammatory properties. In this study, chalcones 1–7 were tested for their ability to capture NO radicals induced by the presence of SNAP at a concentration of 300 μM (Figure 5). […] Instead, these compounds could potentially exert their effects via alternative mechanisms, such as the modulation of iNOS activity or by targeting upstream targets in the inflammatory cascade, such as by the suppression of NF-κB activation, and/or Nrf2 activation, which will deplete co-activators from the iNOS enzyme, thereby reducing iNOS transcription and, consequently, iNOS protein levels and NO production.
The ability to scavenge NO was assessed using S-nitroso-N-acetyl-D/L-penicillamine (SNAP) as a source of NO. The production of NO was quantified using the Griess reaction, following a previously described method. […] Absorbance at 550 nm was then measured using a Biotek Synergy HT plate reader (Biotek, CA, USA). The nitrite concentration in the supernatants was determined by comparing the absorbance of each sample to a sodium nitrite standard curve. […]

**Q.** Which iNOS expression level ([1]; 7.5 µM, 4 h) does the source give for `COc1cc(Br)c(/C=C/C(=O)c2cc(OC)c(OC)cc2Br)cc1OC` [Chalcone 1] here?
**A.** 84.7%

**Q.** And the iNOS expression level ([1]; 7.5 µM, 24 h)?
**A.** 14.3%

**Q.** And the iNOS expression level ([1]; 15 µM, 4 h)?
**A.** 28.3%

**Q.** What about the iNOS expression level ([1]; 15 µM, 6 h) of the same compound?
**A.** 13.5%

**Q.** And the iNOS expression level ([1]; 15 µM, 24 h)?
**A.** 16.7%

**Q.** What about the “maximum reduction of iNOS expression” value ([1]; regardless of concentration (7.5 µM at 24 h, 15 µM at 6 h)) of the same compound?
**A.** approximately 85%

**Q.** And the NO scavenging activity [2]?
**A.** No direct NO scavenging action
